In patent US20100204460A1, “NATURAL BRASSINOSTEROIDS FOR USE FOR TREATING HYPERPROLIFERATION, TREATING PROLIFERATIVE DISEASES AND REDUCING ADVERSE EFFECTS OF STEROID DYSFUNCTION IN MAMMALS, PHARMACEUTICAL COMPOSITION AND ITS USE” (priority 2007, published 2010):
“And” between values parts separate entries of the source, which are not always exact repeats. Identical values can stand only once.

Legend:
Format in all cases: cell-based
LNCaP cells [1] = test: TUNEL detection of apoptosis, LNCaP; settings: IC50 concentration
Procedure: TdT-Mediated dUTP nick end labeling (TUNEL) detection of apoptosis index. For detection of apoptotic cells, the TUNEL assay was used. […] After period of treatment, the cells were washed with PBS and fixed on the slides with cold acetone-methanol (1:1, v/v) for 10 min. Apoptosis-induced nuclear DNA fragmentation was detected by terminal deoxynucleotidyl transferase-mediated UTP nick end labeling (TUNEL) technique according to the producer protocol (In Situ Cell Death Detection Kit; Roche Diagnostics, Mannheim, Germany). The cells were then washed three times in PBS and stained with 4′-6-diamidino-2-phenylindole (DAPI; 50 μg/ml; Sigma, St. Louis, Mo., USA) for 10 min in the dark. The coverslips with cells were washed in deionized water and mounted on glass slides, using the hydrophilic medium Mowiol (Calbiochem, Fremont, Calif., USA) in glycerol-PBS (1:3, v/v) for fluorescence. Cells were visualized using fluorescence microscopy and compared with control cells. TUNEL staining achieved to confirm apoptosis in all cell lines.

DU-145 cells = test: Cell cycle distribution by flow cytometry, DU-145; settings: IC50, 24 h; for Cell cycle distribution S: control 15%; for Apoptosis subG1 fraction: control 20%; for Cell cycle distribution G2/M: control 23%; for Cell cycle distribution G1: control 62%
From the text: (§1) In the MCF-7 breast cancer cell line that has been the most widely studied experimental cell system, the typical growth inhibitory response to antiestrogens is decrease in the proportion of cells synthesising DNA (S phase) after antiestrogen treatment. This decrease in S phase coincides with an increase in the proportion of cells in G0/G1 phase. The activity of the androgen receptor (AR) is also regulated by alterations in cell signaling. There has been reported ligand independent activation of AR in prostate cancer cells by different growth factors. As the AR can be activated in the absence of hormone, it appears that the conditions may be more restricted than those observed for ER. Use of physiologic doses of ligand (dihydrotestosterone, DHT) is of importance as the LNCaP cells proliferate only at DHT concentration of 10^−9 M or lower. […] In contrast to proliferation, transactivation of AR specific target genes (e.g. PSA) continues to increase with DHT doses of 10^−10 M and higher. It might be accepted for estrogen or androgen receptors as stronger cytotoxic activities of brassinosteroids 9 or 6 on hormone-sensitive (MCF-7, LNCaP) compared to hormone-insensitive (MDA-MB-468, DU-145) cell lines were found. Therefore we explored the possibility of cell cycle perturbation by BRs in different cancer cell lines. Flow cytometry was used to evaluate the number of cells in the particular phases of the cell cycle, including subG1 peak detection. Control and treated cells were washed twice with cold PBS and centrifuged at 360×g for 10 min at 4° C., and fixed with chilled ethanol (70%; v/v) by low-speeded vortexing. For detection of DNA content analysis, propidium iodide staining was used. The cells were analyzed using a FACSCalibur flow cytometer (BD Biosciences, San Jose, Calif.).
(§2) Flow-cytometric detection of apoptosis. Several studies have declared that the induction of apoptosis may be cell cycle-dependent. Therefore, in our next series of experiments, we tested if brassinosteroids 9 or 6 cause apoptosis of the breast and prostate cancer cells via cell cycle blockage. From this reason we carried out DNA cell cycle analysis by flow cytometry based on detection of endonucleolytic DNA degradation that results in extraction of low molecular weight DNA from the cells. […] The subG1 peak containing apoptotic bodies was however not observed in MCF-7 cells.

LNCaP cells [2] = test: Cell cycle distribution by flow cytometry, LNCaP; settings: IC50, 24 h; for Apoptosis subG1 fraction: control 8%; for Cell cycle distribution S: control 14%; for Cell cycle distribution G2/M: control 16%; for Cell cycle distribution G1: control 70%
From the text: as §1, §2

MCF-7 cells = test: BrdU incorporation assay, MCF-7
Procedure: To analyze if the inhibition in cell viability was due to decreased cell proliferation, we measured DNA synthesis in the presence of BRs. The effect of brassinosteroids 9 or 6 on cell proliferation and DNA replication of the cancer cells was measured by BrdU incorporation assay. This immunostaining was based on nuclear incorporation of bromodeoxyuridine (BrdU) into DNA in place of thymidine during the S-phase of cell cycle detected by anti-specific-BrdU antibody following membrane permeabilization as described previously (Gratzner, Science. 1982, 218, 474-475). […] The BrdU reagent (0.1 mM; Sigma, MO, USA) was added in culture medium with cells for 4 h in a CO2 incubator at 37° C. After incubation the cells were washed three times with PBS and fixed with cold acetone-methanol (1:1, v/v) for 10 min. The cells were denaturated by HCl (1:5; Lachema, Czech Republic) and incubated with anti-specific-BrdU antibody (diluted 1:100 in PBS; clone Bu20a, DakoCytomation, Denmark) for 60 min in the dark. The cells were then washed three times in PBS (10 mM, pH 7.4) and incubated with goat anti-mouse fluorescein isothiocyanate (FITC)-labeled secondary antibody (Sigma, MO, USA) for 60 min in the dark. The cells were then washed three times in PBS and incubated with DAPI (50 μg/mL; Sigma, MO, USA) for 10 min in the dark. The coverslips with cells were washed in deionized water and mounted on glass slides, using the hydrophilic medium Mowiol (Calbiochem, Calif., USA) in glycerol-PBS (1:3, v/v) for fluorescence. Cells were visualized using microscopy and those incorporating BrdU (S phase cells) were counted in at least 25 fields and compared with the total number of all cells.

[3] = tested on: MCF-7 (estrogen receptor-α-positive) breast cancer cell line; test: MTT cytotoxicity test, MCF-7; settings: 24 h, mean ± SD, read-out: IC50 determined by MTT cytotoxicity test
Procedure: 3-(4,5-Dimethylthiazol-2-yl)-2,5-diphenyltetrazolium bromide (MTT) was from Serva Electrophoresis (Heidelberg, Germany). Monoclonal mouse anti-bromodeoxyuridine (BrdU) intibody was obtained from DakoCytomation (Glostrup, Denmark). Calcein AM was obtained from PAA Laboratories GmbH (Pasching, Austria). […] All other cells were cultured in DMEM medium (Sigma, MO, USA). All used media were supplemented with 10% heat-inactivated fetal bovine serum, 2 mmol/L L-glutamine, 1% penicillin/streptomycin. The cell lines were maintained under standard cell culture conditions at 37° C. and 5% CO2 in a humid environment. Cells were subcultured twice or three times a week using the standard trypsinization procedure (Sigma, USA).
Cell viability in this case was assessed by 3-(4,5-dimethylthiozol-2-yl)-2,5-diphenyltetrazolium bromide (MTT) to determine IC50 concentrations of studied agents as described previously. […] The cells (70% to 80% confluent) were treated with brassinosteroids for 6, 12 and 24 h in cell culture medium. Cells that were used as controls were incubated with the maximum used amount of steroid diluent DMSO only. […] The absorbance was read using an ELISA reader Labsystem Multiscan RC at 570 nm. The viability of treated cells was related to the viability of control cells that represented 100% viability. […]

[4] = treated at IC50 for 6 h, control 50 ± 3.6
[5] = treated at IC50 for 12 h, control 53 ± 3.5
[6] = treated at IC50 for 24 h, control 69 ± 4.5

Structure (SMILES)	percentage of TUNEL positive cells (LNCaP cells [1]; 6 h, control 0.3 ± 0.6) [%]	percentage of TUNEL positive cells (LNCaP cells [1]; 12 h, control 0.6 ± 0.6) [%]	percentage of TUNEL positive cells (LNCaP cells [1]; 24 h, control 0.6 ± 0.6)	Cell cycle distribution S (DU-145 cells) [%]	Apoptosis subG1 fraction (DU-145 cells) [%]	Cell cycle distribution G2/M (DU-145 cells) [%]	Cell cycle distribution G1 (DU-145 cells) [%]	Apoptosis subG1 fraction (LNCaP cells [2]) [%]	Cell cycle distribution S (LNCaP cells [2]) [%]	Cell cycle distribution G2/M (LNCaP cells [2]) [%]	Cell cycle distribution G1 (LNCaP cells [2]) [%]	percentage of proliferating BrdU positive cells (MCF-7 cells; [4]) [%]	percentage of proliferating BrdU positive cells (MCF-7 cells; [5]) [%]	percentage of proliferating BrdU positive cells (MCF-7 cells; [6]) [%]	IC50 [3] [µM]
CC(C)[C@@H](C)[C@@H](O)[C@H](O)[C@@H](C)[C@H]1CC[C@H]2[C@@H]3COC(=O)[C@H]4C[C@H](O)[C@H](O)C[C@]4(C)[C@H]3CC[C@]12C [Brassinosteroid 6, 24-Epibrassinolide]	10.7 ± 4.0	12.2 ± 5.1	21.9% and 21.9 ± 3.0 %	8	24	39	53	47	5	9	86	42 ± 3.2	40 ± 7.1	36 ± 5.5	60 ± 1.8
CC[C@@H](C(C)C)[C@@H](O)[C@H](O)[C@@H](C)[C@H]1CC[C@H]2[C@@H]3CC(=O)[C@H]4C[C@H](O)[C@H](O)C[C@]4(C)[C@H]3CC[C@]12C [Brassinosteroid 9, 28-Homocastasterone]	7.3 ± 2.1	15.7 ± 2.5	25.8% and 25.8 ± 2.5 %	8	28	46	46	18	2	4	94	46 ± 2.5	31 ± 3.8	29±4.0	40 ± 1.5
